{
  "source": "patent EP3791884A1",
  "about": "“COMBINATION OF HEPARIN AND MAGNESIUM SALT FOR THE TREATMENT OF VIRAL INFECTIONS” (Bunz, Oskar, priority 2019, dated 2021)",
  "key": {"[1]": {"tested_on": "several types of adenovirus", "conditions": "cited from earlier work"}, "[2]": {"experiment": "Zinc test series: cytotoxic effect (not described in the Examples)", "assay_type": "cell-based", "text": "(§1) The inventors have also used zinc for some test series (not described in the Examples section). […] Furthermore, the antiviral effect of zinc was not apparent for all adenoviruses tested. An antiviral effect of zinc was detectable only for adenovirus type 5."}, "adenovirus type 5": {"tested_on": "adenovirus type 5", "experiment": "Zinc test series: antiviral effect, adenovirus type 5", "assay_type": "cell-based", "text": "as §1"}, "Adenovirus type 10": {"tested_on": "Adenovirus type 10", "experiment": "Zinc test series: antiviral effect, adenovirus type 10", "assay_type": "cell-based", "text": "as §1"}, "[3]": {"tested_on": "human adenovirus type 5 (HAdV5)", "conditions": "solely MgCl2, with 25 µmol MgCl2, HAdV5 1000 vpc, CHO-K1 cells"}, "HAdV5 [4]": {"tested_on": "HAdV5", "conditions": "HeLa cells, HAdV5 1000 vpc, heparin 5 I.U. per well and/or MgCl2 5 µmol per well 4 hrs prior to infection, 26 hrs post infection"}, "HAdV5 [5]": {"tested_on": "HAdV5"}, "H9N2": {"tested_on": "H9N2", "conditions": "MDCKII cells, H9N2 MOI 0,1, Heparin 5 I.U. per well and/or MgCl2 5 µmol per well"}, "[6]": {"conditions": "in vivo; cited from earlier work"}},
  "note": "Read-outs that look alike come from different tables or passages of the source.",
  "data": [
    {"smiles": "Nc1nc(O)c2ncn(COC(CO)CO)c2n1", "note": "[Ganciclovir]", "values": [
      {"measurement": "efficiency against adenovirus", "setting": "[1]", "result": "not against adenovirus"},
      {"measurement": "half-maximal effective concentration (EC50)", "setting": "[1]; in vitro, relative to plasma", "result": "three times higher than in plasma"}
    ]},
    {"smiles": "[Zn]", "note": "[zinc]", "values": [
      {"measurement": "cytotoxic effect", "setting": "[2]", "result": "very strong cytotoxic effect"},
      {"measurement": "antiviral effect", "setting": "adenovirus type 5", "result": "detectable"},
      {"measurement": "infection efficiencies in cells treated with zinc", "setting": "Adenovirus type 10", "result": "increased infection efficiencies"}
    ]},
    {"smiles": "NC(=O)c1ncn([C@@H]2O[C@H](CO)[C@@H](O)[C@H]2O)n1", "note": "[Ribavirin]", "values": [
      {"measurement": "antiviral activity against HAdV species C", "setting": "[1]; in vitro", "result": "antiviral activity"},
      {"measurement": "antiviral activity against species A, B, D", "setting": "[1]; in vitro", "result": "limited activation"}
    ]},
    {"smiles": "[Cl-].[Cl-].[Mg+2]", "note": "[MgCl2, magnesium chloride]", "values": [
      {"measurement": "luciferase values", "setting": "[3]", "result": 40, "unit": "%"},
      {"measurement": "median fluorescent intensity (MFI)", "setting": "HAdV5 [4]", "result": 41, "unit": "%"},
      {"measurement": "luciferase expression levels", "setting": "HAdV5 [5]; only MgCl2 and virus, compared to untreated cells solely infected with virus", "result": 7, "unit": "%"},
      {"measurement": "luciferase expression levels", "setting": "HAdV5 [5]; only applying virus and MgCl2", "result": "about 32%"},
      {"measurement": "luciferase expression levels", "setting": "HAdV10; only MgCl2 and virus", "result": 12, "unit": "%"},
      {"measurement": "luciferase expression levels", "setting": "HAdV10; only applying virus and MgCl2", "result": 10, "unit": "%"},
      {"measurement": "infected cells (immunofluorescence)", "setting": "H9N2", "result": "slight decrease"}
    ]},
    {"smiles": "Nc1ccn(C[C@@H](CO)OCP(=O)(O)O)c(=O)n1", "note": "[Cidofovir]", "values": [
      {"measurement": "toxicity", "setting": "[6]", "result": "nephrotoxic"}
    ]}
  ]
}
